The values that follow are results of earlier work, collected in patent US20220151922A1, “Medication for Alleviating Parkinson's Symptoms and Method of Administering” (priority 2020, published 2022).

Structures are written as SMILES.

Series [1] has as its system bacteria, bacterial spores, and viruses. As to conditions: versus chlorine bleach.
The subject of series [2] is Pseudomonas aeruginosa biofilms.

On to `OCl` [HOCl, Hypochlorous acid], for which the “effectiveness of killing bacteria, bacterial spores, and viruses relative to chlorine bleach” value in series [1] is reported as 100 times. In series [2], the “removing Pseudomonas aeruginosa biofilms” value is recorded as “effectiveness”.
